Results reported in patent US6541672B1, “Derivatives of benzilidine cyclohexanone, benzilidine cyclopentanone, and benzilidine acetone and their synthesis” (Faculty of Pharmacy, The University of Gadjah Mada, priority 1997, dated 2003).

How the values were obtained:
[1] = system: S. pheumoniae; test: Anti bacterial and antifungal activity test; assay type: cell-based, S. pneumoniae; settings: in DMSO, 37° C. 24 hours
Protocol: (§1) ANTI BATERIAL AND ANTIFUNGAL ACTIVITY TEST
(§2) Sterile medium of Bacto Muller Hinton was melted at 45-50° C. and poured (25 ml) into a sterile Petric dish (100 mm in diameter), and was left at room temperature for 1 hour. The sterility was checked by overnight incubation (37° C.). The media was immediately used. The microorganism used was gram positive and gram negative. The drug solutions of 0.1, 0.2 and 0.4% in DMSO were used. Incubation was performed at 37° C. for 24 hours.

[2] = system: B. subtilis; test: Anti bacterial and antifungal activity test; assay type: cell-based; settings: in DMSO, 37° C. 24 hours
Protocol: as §1, §2

[3] = system: S. Aureus; test: Anti bacterial and antifungal activity test; assay type: cell-based; settings: in DMSO, 37° C. 24 hours
Protocol: as §1, §2

[4] = system: C. albicans; test: Anti bacterial and antifungal activity test; assay type: cell-based; settings: in DMSO, 37° C. 24 hours
Protocol: as §1, §2

[5] = system: lipid peroxidation (microsome); test: Anti oxidation test (Haenen and Bast, 1983), lipid peroxidation; assay type: biochemical; settings: malondialdehyde (TBA), microsome 2 mg protein/ml, 37° C., absorbance 535 nm
Protocol: ANTI OXIDATION […], 1983) Anti oxidative activity (lipid peroxidation) was determined by measuring the reactive form of thiobarbituric acid, i.e. malondialdehyde. The synthetic compound with final concentration of 0.5; 1.0; 2.0; 4.0 microM was put into glass tubes. […] The mixture was pre-incubated at 37° C. for 5 minutes. Lipid peroxidation was initiated with the addition of ferro sulphate (0.5 ml, 10 microN) and incubated at 37° C. for 5 minutes, the reaction was stopped by addition of aliquot (0.3 ml) to the mixture of TCA, TBA, and BHT (2 ml) in cold. After heating (80° C.) for 15 minutes and centrifugation (15 minutes), absorbance was read at 535 nm.

[6] = system: carragenin rat paw edema; test: Anti inflammatory activity test (Winter, 1962), carragenin rat paw edema; assay type: in vivo, Wistar rats; settings: peroral in CMC 1%, inhibition of rat paw edema volume, doses 10-80 mg/kg bw
Source text: ANTI INFLAMMATORY ACTIVITY TEST (WINTER, 1962)
Carragenin was used as an inflammatory agent. The volum inhibition of rat paw edema following peroral administration of various doses of the sysnthetic compounds in 1% CMC in comparison to that of control was used to determine the activity of the compounds. In order to evaluate the anti-inflammatory of each compound. Wistar rats (body weight ranging from 200-250 g) were used and divided randomly into 5 groups: one group served as or control and 4 groups were treatment groups. The control group received the vehicle CMC; (Carboxy Methyl Cellulose […]), while the treatment groups received the synthetic compound per orally in CMC 1%. Doses of 10, 20, 40 and 80 mg/kg bw were given to the animals. Where one hour later the animals received a subplantar injection of 0.05 ml of carragenin suspension in saline solution (NaCi 0.9%)- The volumes of rat paw edema were measured immediately and every half an hour following the subplantar injection for 5 hours.

## O=C(C=Cc1cc(Cl)c(O)c(Cl)c1)C=Cc1cc(Cl)c(O)c(Cl)c1 [GVT-6, 1,5-bis (4-hydroxy-3,5-dichlorophenyl)-1,4-pentadiene-3-one]
[1]
  Minimum Inhibition Concentration: 0.05%
[2]
  Minimum Inhibition Concentration: 0.30%
[3]
  Minimum Inhibition Concentration: 0.25%
[4]
  Minimum Inhibition Concentration: 0.25%

## CCc1cc(C=C2CCCC(=Cc3cc(CC)c(O)c(CC)c3)C2=O)cc(CC)c1O [HGV-2]
[5]
  IC50: 1970 nM
[6]
  ED 50: 20 mg/kg.bb

## COc1cc(/C=C2/CCC/C(=C/c3cc(OC)c(O)c(OC)c3)C2=O)cc(OC)c1O [HGV-5]
[5]
  IC50: 1700 nM
[6]
  ED 50: 222 mg/kg.bb

## O=C1C(=Cc2cc(Cl)c(O)c(Cl)c2)CCCC1=Cc1cc(Cl)c(O)c(Cl)c1 [HGV-6]
[1]
  Minimum Inhibition Concentration: 0.05%
[2]
  Minimum Inhibition Concentration: 0.25%
[3]
  Minimum Inhibition Concentration: 0.35%
[4]
  Minimum Inhibition Concentration: 0.25%
[6]
  ED 50: 25 mg/kg.bb

## Cc1cc(/C=C2\CC/C(=C\c3cc(C)c(O)c(C)c3)C2=O)cc(C)c1O [PGV-1]
[5]
  IC50: 2200 nM
[6]
  ED 50: 86 mg/kg.bb

## CCc1cc(/C=C2\CC/C(=C\c3cc(CC)c(O)c(CC)c3)C2=O)cc(CC)c1O [PGV-2]
[5]
  IC50: 2210 nM
[6]
  ED 50: 80 mg/kg.bb

## COc1cc(/C=C2/CC/C(=C/c3cc(OC)c(O)c(OC)c3)C2=O)cc(OC)c1O [PGV-5]
[5]
  IC50: 990 nM
[6]
  ED 50: 48 mg/kg.bb

## O=C1C(=Cc2cc(Cl)c(O)c(Cl)c2)CCC1=Cc1cc(Cl)c(O)c(Cl)c1 [PGV-6]
[5]
  IC50: 14900 nM
[1]
  Minimum Inhibition Concentration: 0.10%
[2]
  Minimum Inhibition Concentration: 0.20%
[3]
  Minimum Inhibition Concentration: 0.25%
[4]
  Minimum Inhibition Concentration: 0.25%
[6]
  ED 50: 20 mg/kg.bb
